Entries after “also recorded” stand apart in the source; their conditions may differ. Bridge positions count the residues as written; N and C are the ends. Square brackets hold non-standard residues; d marks the D form. Ends that are not written are not given here. Peptide text beside a SMILES is read from it. I, II: the chains in the order shown. Ac6c = NC1(C(=O)O)CCCCC1; Dab = NCC[C@H](N)C(=O)O; Dap = NC[C@H](N)C(=O)O
How the values were obtained:
K. pneumoniae HK123 = conditions: HK123, 16 h
Description: (§1) To investigate the activity of the A3-APO metabolites, Chex1-Arg20 single chain unit and an Arg7-Arg20 common cleavage fragment were synthesized and studied for their ability to kill Enterobacteriaceae strains in undiluted Muller-Hinton broth, a true measure of potential clinical viability (Otvos et al., 2005. J. Med. Chem. 48: 5349-5359). The peptides of the invention were made on a CEM Liberty automated synthesizer with standard Fmoc-chemistry. The peptides were detached from the resin with the carboxyl terminus of the C-terminal Arg residue being in the form of an amino amide, —C(O)—NH2 (“Chex1-Arg20-NH2” and “Arg7-Arg20-NH2”), while still in the microwave chamber, and were purified by RP-HPLC. […] The biological studies carried out on chemically synthesized peptides in this example and succeeding examples were carried out on the C-terminal modified versions of the peptides wherein the C-terminal carboxylic acid function was in the form of an amide, —C(O)—NH2. Antibacterial growth inhibition assays were performed using sterile 96-well polypropylene plates (Nunc F96 microtiter plates) in a final volume of 100 μL as described previously (Cudic et al., 2002. Peptides 23: 271-283). The cell concentrations were estimated by measuring the ultraviolet absorbance at 600 nm and applying the formula cfu/mL=A600(3.8×10^8), where cfu is the number of colony-forming units. Briefly, 50 μL of a suspension of midlogarithmic phase bacterial cultures diluted to 5×10^5 cfu/mL in Muller-Hinton broth (MHB) was added to 50 μL of serially diluted peptides also dissolved in MHB. The final peptide concentration was 128 μg/mL. Cultures were then incubated at 37° C., 5% CO2 for 16-20 h without shaking, and growth inhibition was measured by recording the absorbance at 600 nm using a microplate reader. […] The minimal inhibitory concentration indicates the lowest peptide dose where no visible bacterial growth is detected after 16 hours incubation in full strength Muller-Hinton broth at 37° C. The peptide Chex-pyrr-Dap dimer was also included in the study. […] (Cudic et al., 2002. Peptides 23: 271-283).

E. coli HK179 = conditions: HK179, 16 h
Description: as §1

E. coli SEQ102 = conditions: SEQ102, 16 h
Description: as §1

[1] = test system: Enterobacteriaceae strains
Description: as §1

S. typhimurium G10215 = conditions: G10215, 16 h
Description: as §1

Escherichia coli 5770 [2] = assay: Mouse survival after last dose, systemic infection model without cisplatin pretreatment; format: in vivo; conditions: 40 mg/kg
Description: The survival rate and the dynamics of survival of mice after the last dose of an antibacterial peptide treatment (12 hours post-infection) were measured in a mouse model of Escherichia coli 5770 systemic infection. In this particular study, the animals were not pretreated with cisplatin. Ten animals were used in each group. […] In the control (infected, non-treated) and the imipenem treated rows, the first numbers reflect the number of surviving animals on the day of assay measuring the efficacy of the Chex1-Arg20 and the second numbers are the surviving control animals on the day of the A3-APO efficacy assay.

[3] = test system: extended-spectrum β-lactamase producing E. coli strain (designation 5770); assay: Systemic infection model, cisplatin-pretreated CD-1 mice, blood bacterial counts; format: in vivo; conditions: 40 mg/kg ip
Description: As peptide drugs, such as antimicrobial peptides, are predominantly cleared through the kidneys (Klootwijk et al., 1997. J. Clin. Endocrinol. Metab. 82: 3068-3073) and the kidney functions of mice are 20-fold faster than those of humans, CD-1 female mice of 15-20 g were pretreated with 18 mg/kg cisplatin for 3 days to impair kidney clearance similar to the levels observed in humans (Mathe et al., 2006. Lab. Anim. 40: 296-300) before they were challenged intraperitoneally (ip) with 10^8 CFU per g mouse of an extended-spectrum β-lactamase producing E. coli strain (designation 5770). Four, 8 and 12 hours after challenge 10 or 20 mg/kg peptide Chex1-Arg20 or 40 mg/kg imipenem (as a positive control) were administered ip to 10 mice in each group. Imipenem is a broad spectrum β-lactam antibiotic. Prior to drug administration at all three timepoints, blood was taken from the tail vein of 3-5 mice for determining blood bacterial counts. […] Antimicrobials were administered ip 4 hours after challenge 3 times in 4 hour intervals. Blood was taken immediately before antimicrobial treatments. Numbers in parentheses indicate the number of mice with <10^3 CFU/mL. Bacterial counts were determined 10 times from different dilution of blood from 5 mice in each group in each timepoints.

[4] = approximately 100 μL retrieved blood (female CD-1 mice retroorbitally bled), ex vivo; conditions: 37° C., up to 30 min
[5] = blood taken from the eye of CD-1 mice injected intravenously with A3-APO; conditions: up to 240 minutes
Escherichia coli 5770 [6] = assay: Blood bacterial counts before and after intraperitoneal dosing of infected CD-1 mice (FIGS. 4A, 4B); format: in vivo; conditions: compared with imipenem in the respective assay
Description: FIGS. 4A and 4B illustrate blood bacterial counts before and after intraperitoneal drug dosing to Escherichia coli 5770 infected CD-1 mice. In FIG. 4A the symbols represent bacterial counts observed for infected and non-treated mice, A3-APO treated mice and imipenem treated mice. In FIG. 4B the symbols represent bacterial counts observed for infected and non-treated mice, Chex1-Arg20-NH2 treated mice and imipenem treated mice. Identical shapes if FIGS. 4A and 4B represent identical timepoints, respectively.
Both A3-APO and Chex1-Arg20 are active in lethal systemic infections. Efficacy is shown in both the increase of survival time and the reduction of blood bacterial counts. FIGS. 4A and 4B show blood bacterial counts before and after intraperitoneal drug dosing to Escherichia coli 5770 infected CD-1 mice. In FIG. 4A the symbols represent bacterial counts observed for infected and non-treated mice, A3-APO treated mice and imipenem treated mice. In FIG. 4B the symbols represent bacterial counts observed for infected and non-treated mice, Chex1-Arg20-NH2 treated mice and imipenem treated mice. Identical shapes if FIGS. 4A and 4B represent identical timepoints, respectively.

[7] = ex vivo blood, protocol of 'Stability of Peptide A3-APO in Whole Blood'; conditions: CD-1 mice, 37° C., up to 120 min
E. coli D31 = conditions: full strength Muller-Hinton broth, 16 hours, 37° C.
Description: as §1

Molecule: CC[C@H](C)[C@H](NC(=O)[C@@H]1CCCN1C(=O)[C@H](CCCNC(=N)N)NC(=O)[C@@H]1CCCN1C(=O)[C@@H]1CCCN1C(=O)[C@@H](NC(=O)[C@@H]1CCCN1C(=O)[C@H](CCCNC(=N)N)NC(=O)[C@@H]1CCCN1C(=O)[C@H](CC(C)C)NC(=O)[C@H](Cc1ccc(O)cc1)NC(=O)[C@H](CO)NC(=O)CNC(=O)[C@H](CCCCN)NC(=O)[C@H](CC(=O)O)NC(=O)C1(N)CCCCC1)[C@@H](C)O)C(=O)N[C@@H](Cc1ccc(O)cc1)C(=O)N[C@@H](CC(N)=O)C(=O)N[C@@H](CCCNC(=N)N)C(=O)NC[C@H](NC(=O)[C@H](CCCNC(=N)N)NC(=O)[C@H](CC(N)=O)NC(=O)[C@H](Cc1ccc(O)cc1)NC(=O)[C@@H](NC(=O)[C@@H]1CCCN1C(=O)[C@H](CCCNC(=N)N)NC(=O)[C@@H]1CCCN1C(=O)[C@@H]1CCCN1C(=O)[C@@H](NC(=O)[C@@H]1CCCN1C(=O)[C@H](CCCNC(=N)N)NC(=O)[C@@H]1CCCN1C(=O)[C@H](CC(C)C)NC(=O)[C@H](Cc1ccc(O)cc1)NC(=O)[C@H](CO)NC(=O)CNC(=O)[C@H](CCCCN)NC(=O)[C@H](CC(=O)O)NC(=O)C1(N)CCCCC1)[C@@H](C)O)[C@@H](C)CC)C(=O)N[C@@H](CNC(C)=O)C(N)=O [Chex-pyrr-Dap dimer] (I: H-[Ac6c]DKGSYLPRPTPPRPIYNR[Dap][Dap](Ac)-NH2 / II: H-[Ac6c]DKGSYLPRPTPPRPIYNR; amide I:20-II:C; N-terminus assumed)
- MIC against K. pneumoniae HK123 (K. pneumoniae HK123): >64 µg/mL
- MIC against E. coli HK179 (E. coli HK179): >64 µg/mL
- MIC against E. coli SEQ102 (E. coli SEQ102): >64 µg/mL
- activity in full-strength Muller-Hinton broth ([1]; negative control): without significant activity
- MIC against S. typhimurium G10215 (S. typhimurium G10215): >64 µg/mL

Molecule: C[C@@H](O)[C@H]1C(=O)N2C(C(=O)O)=C(SCCN=CN)C[C@H]12 [Imipenem, reference compound]
- number of surviving mice (10 animals each) (Escherichia coli 5770 [2]; 0 h after last dose, day of the A3-APO assay): 9
- number of surviving mice (10 animals each) (Escherichia coli 5770 [2]; 0 h after last dose, day of the Chex1-Arg20 assay): 10
- number of surviving mice (10 animals each) (Escherichia coli 5770 [2]; 3 h after last dose, day of the A3-APO assay): 9
- number of surviving mice (10 animals each) (Escherichia coli 5770 [2]; 3 h after last dose, day of the Chex1-Arg20 assay): 10
- number of surviving mice (10 animals each) (Escherichia coli 5770 [2]; 6 h after last dose, day of the A3-APO assay): 9
- number of surviving mice (10 animals each) (Escherichia coli 5770 [2]; 6 h after last dose, day of the Chex1-Arg20 assay): 10
- number of surviving mice (10 animals each) (Escherichia coli 5770 [2]; 9 h after last dose, day of the A3-APO assay): 9
- number of surviving mice (10 animals each) (Escherichia coli 5770 [2]; 9 h after last dose, day of the Chex1-Arg20 assay): 10
- number of surviving mice (10 animals each) (Escherichia coli 5770 [2]; 12 h after last dose, day of the A3-APO assay): 9
- number of surviving mice (10 animals each) (Escherichia coli 5770 [2]; 12 h after last dose, day of the Chex1-Arg20 assay): 10
- Bacterial counts in blood after inoculation/challenge ([3]; 4 h (blood taken before first dose)): 3.2 × 10^5 CFU/mL
- Bacterial counts in blood after inoculation/challenge ([3]; 8 h): 3.7 × 10^3 CFU/mL
- Bacterial counts in blood after inoculation/challenge ([3]; 12 h): < 1.2 × 10^3 CFU/mL

Molecule: (SEQ ID NO: 2)2-Dab (I: [Ac6c]RPDKPRPYLPRPRPPRPVR[Dab] / II: [Ac6c]RPDKPRPYLPRPRPPRPVR; amide I:21-II:C (inferred))
- fragment found [4]: Chex1-Val19; Chex-Arg-Pro-Asp-Lys-Pro-Arg-Pro-Tyr-Leu-Pro-Arg-Pro-Arg-Pro-Pro-Arg-Pro-Val (SEQ ID NO: 4), 30 min; also recorded: Chex1-Dab21; Chex-Arg-Pro-Asp-Lys-Pro-Arg-Pro-Tyr-Leu-Pro-Arg-Pro-Arg-Pro-Pro-Arg-Pro-Val-Arg-Dab (SEQ ID NO: 7), 30 min
- fragment found [5]: Chex1-Arg20; Chex-Arg-Pro-Asp-Lys-Pro-Arg-Pro-Tyr-Leu-Pro-Arg-Pro-Arg-Pro-Pro-Arg-Pro-Val-Arg (SEQ ID NO: 2), major, 5 minutes

Molecule: Chex-Arg-Pro-Asp-Lys-Pro-Arg-Pro-Tyr-Leu-Pro-Arg-Pro-Arg--Pro-Pro-Arg-Pro-Val-Arg-NH2 ([Ac6c]RPDKPRPYLPRPRPPRPVR-NH2) [Chex1-Arg20-NH2]
- reduction of blood bacterial counts (Escherichia coli 5770 [6]): reduced the bacterial counts to levels identical to those observed after imipenem treatment

Molecule: Chex-Arg-Pro-Asp-Lys-Pro-Arg-Pro-Tyr-Leu-Pro-Arg-Pro-Arg-Pro-Pro-Arg-Pro-Val-Arg
- cleaved bond [7]: Val19-Arg20

Molecule: RPYLPRPRPPRPVR-NH2 [Arg7-Arg20, Arg-Pro-Tyr-Leu-Pro-Arg-Pro-Arg-Pro-Pro-Arg-Pro-Val-Arg]
- MIC against K. pneumoniae HK123 (K. pneumoniae HK123): >64 µg/mL
- MIC against E. coli D31 (E. coli D31): >64 µg/mL
- MIC against E. coli HK179 (E. coli HK179): >64 µg/mL
- MIC against E. coli SEQ102 (E. coli SEQ102): >64 µg/mL
- MIC values against the test strain [1]: > 64 µg/mL
- MIC against S. typhimurium G10215 (S. typhimurium G10215): >64 µg/mL

— patent US8492515B2 (priority 2008, dated 2013)
